Results published in patent publication US20250288619A1, “PHARMACEUTICAL COMPOSITION, MEGASPHAERA, AND USE THEREOF” (MOON (GUANGZHOU) BIOTECH CO., LTD., priority 2022, published 2025).

Legend:
[1] = tested on: strain MNH05026; test: Antibiotic sensitivity test by disk diffusion method, strain MNH05026; assay type: cell-based, Megasphaera sp.
Description: (§1) Antibiotic sensitivity tests of the strains MNH05026, MNH22004, and MNH27256: Antibiotic sensitivity tests were carried out on the strain MNH05026 by a disk diffusion method.

[2] = tested on: strain MNH27256; test: Antibiotic sensitivity test by disk diffusion method, strain MNH27256; assay type: cell-based, Megasphaera sp.
Description: as §1

[3] = tested on: strain MNH22004; test: Antibiotic sensitivity test by disk diffusion method, strain MNH22004; assay type: cell-based, Megasphaera sp.
Description: as §1

[4] = tested on: ectopic syngeneic liver cancer model; test: Therapeutic effect of MNH05026 in combination with Lenvatinib on liver cancer; assay type: in vivo, mouse; conditions: male BALB/c mice
Excerpt: 104 male BALB/c mice were purchased, and inoculated with tumor cells after the quarantine was completed, to establish an ectopic syngeneic liver cancer model. The day of tumor cell inoculation was D1. […] Mice with abnormal tumor growth were discarded and the remaining mice were randomized into 10 groups according to the tumor volume on that day, with 7 mice per group. […] Group A was the Negative Control group, Group B was the positive control Lenvatinib group, Group J was the Lenvatinib+MNH05026 combination group, and Groups C-I received other test articles in combination with Lenvatinib. On the day of grouping, interventions were carried out according to the grouping. During the experiment, animal characteristics, tumor changes, tumor sizes, and mouse weights were monitored regularly. At the experimental endpoint, body weight changes, tumor volume changes, response rates, and tumor growth inhibition rates were analyzed.
(§2) Statistical analysis was performed using Two-Way ANOVA with Dunnett's multiple comparisons at the experimental endpoint. Significance of difference vs. the Control group: not significant (ns), p value≥0.05; *, p value<0.05; **, p value<0.01; ***, p value<0.001; ****, p value<0.0001.
as §2, with “FIGS. 17B and 17C present the mouse tumor volume data as mean±standard deviation (mm3). Statistical” for “Statistical”

## CC1(C)S[C@@H]2[C@H](NC(=O)[C@H](N)c3ccccc3)C(=O)N2[C@H]1C(=O)O [Ampicillin]
[1]
  Diameter of inhibition zone by MNH05026: 19.91 mm
  Sensitivity or resistance of strain MNH05026 to the antibiotic: sensitive
[2]
  Diameter of inhibition zone by MNH27256: 0 mm
  Sensitivity or resistance of strain MNH27256 to the antibiotic: resistant
[3]
  Diameter of inhibition zone by MNH22004: 0 mm
  Sensitivity or resistance of strain MNH22004 to the antibiotic: resistant

## CO/N=C(\C(=O)N[C@@H]1C(=O)N2C(C(=O)O)=C(CSc3nc(=O)c(=O)[nH]n3C)CS[C@H]12)c1csc(N)n1 [Ceftriaxone]
[1]
  Diameter of inhibition zone by MNH05026: 29.42 mm
  Sensitivity or resistance of strain MNH05026 to the antibiotic: sensitive
[2]
  Diameter of inhibition zone by MNH27256: 0 mm
  Sensitivity or resistance of strain MNH27256 to the antibiotic: resistant
[3]
  Diameter of inhibition zone by MNH22004: 12.78 mm
  Sensitivity or resistance of strain MNH22004 to the antibiotic: sensitive

## O=C(N[C@H](CO)[C@H](O)c1ccc([N+](=O)[O-])cc1)C(Cl)Cl [Chloramphenicol]
[1]
  Diameter of inhibition zone by MNH05026: 37.02 mm
  Sensitivity or resistance of strain MNH05026 to the antibiotic: sensitive
[2]
  Diameter of inhibition zone by MNH27256: 34.45 mm
  Sensitivity or resistance of strain MNH27256 to the antibiotic: sensitive
[3]
  Diameter of inhibition zone by MNH22004: 33.29 mm
  Sensitivity or resistance of strain MNH22004 to the antibiotic: sensitive

## O=C(O)c1cn(C2CC2)c2cc(N3CCNCC3)c(F)cc2c1=O [Ciprofloxacin]
[1]
  Diameter of inhibition zone by MNH05026: 37.66 mm
  Sensitivity or resistance of strain MNH05026 to the antibiotic: sensitive
[2]
  Diameter of inhibition zone by MNH27256: 34.69 mm
  Sensitivity or resistance of strain MNH27256 to the antibiotic: sensitive
[3]
  Diameter of inhibition zone by MNH22004: 35.42 mm
  Sensitivity or resistance of strain MNH22004 to the antibiotic: sensitive

## CC[C@H]1OC(=O)[C@H](C)[C@@H](O[C@H]2C[C@@](C)(OC)[C@@H](O)[C@H](C)O2)[C@H](C)[C@@H](O[C@@H]2O[C@H](C)C[C@H](N(C)C)[C@H]2O)[C@](C)(O)C[C@@H](C)C(=O)[C@H](C)[C@@H](O)[C@]1(C)O [Erythromycin]
[1]
  Diameter of inhibition zone by MNH05026: 15.65 mm
  Sensitivity or resistance of strain MNH05026 to the antibiotic: sensitive
[2]
  Diameter of inhibition zone by MNH27256: 9.0 mm
  Sensitivity or resistance of strain MNH27256 to the antibiotic: sensitive
[3]
  Diameter of inhibition zone by MNH22004: 21.03 mm
  Sensitivity or resistance of strain MNH22004 to the antibiotic: sensitive

## COc1cc2nccc(Oc3ccc(NC(=O)NC4CC4)c(Cl)c3)c2cc1C(N)=O [Lenvatinib]
[4]
  Body weight during the experiment: increased steadily
  Response rate: 85.71%
  Tumor volume at the experimental endpoint vs Control group: significant decrease

## CCC[C@@H]1C[C@@H](C(=O)N[C@@H]([C@H]2O[C@H](SC)[C@H](O)[C@@H](O)[C@H]2O)[C@@H](C)O)N(C)C1 [Lincomycin]
[1]
  Diameter of inhibition zone by MNH05026: 38.99 mm
  Sensitivity or resistance of strain MNH05026 to the antibiotic: sensitive
[2]
  Diameter of inhibition zone by MNH27256: 8.81 mm
  Sensitivity or resistance of strain MNH27256 to the antibiotic: sensitive
[3]
  Diameter of inhibition zone by MNH22004: 11.34 mm
  Sensitivity or resistance of strain MNH22004 to the antibiotic: sensitive

## CN(C)[C@@H]1C(O)=C(C(N)=O)C(=O)[C@@]2(O)C(O)=C3C(=O)c4c(O)cccc4[C@@](C)(O)[C@H]3C[C@@H]12 [Tetracycline]
[1]
  Diameter of inhibition zone by MNH05026: 21.44 mm
[2]
  Diameter of inhibition zone by MNH27256: 17.75 mm
[3]
  Diameter of inhibition zone by MNH22004: 10.48 mm

## Gentamicin
[1]
  Diameter of inhibition zone by MNH05026: 13.97 mm
  Sensitivity or resistance of strain MNH05026 to the antibiotic: sensitive
[2]
  Diameter of inhibition zone by MNH27256: 9.37 mm
  Sensitivity or resistance of strain MNH27256 to the antibiotic: sensitive
[3]
  Diameter of inhibition zone by MNH22004: 9.00 mm
  Sensitivity or resistance of strain MNH22004 to the antibiotic: sensitive

## Penicillin
[1]
  Diameter of inhibition zone by MNH05026: 29.75 mm
  Sensitivity or resistance of strain MNH05026 to the antibiotic: sensitive
[2]
  Diameter of inhibition zone by MNH27256: 0 mm
  Sensitivity or resistance of strain MNH27256 to the antibiotic: resistant
[3]
  Diameter of inhibition zone by MNH22004: 0 mm
  Sensitivity or resistance of strain MNH22004 to the antibiotic: resistant

## Trimethoprim-sulfamethoxazole
[1]
  Diameter of inhibition zone by MNH05026: 10.65 mm
  Sensitivity or resistance of strain MNH05026 to the antibiotic: sensitive
[2]
  Diameter of inhibition zone by MNH27256: 12.75 mm
  Sensitivity or resistance of strain MNH27256 to the antibiotic: sensitive
[3]
  Diameter of inhibition zone by MNH22004: 17.08 mm
  Sensitivity or resistance of strain MNH22004 to the antibiotic: sensitive
